Measured values as given in patent EP1023075B1, “LIQUID PRESENTATIONS OF OXAZAPHOSPHORINE-CONTAINING PHARMACEUTICAL PRODUCTS” (STADA ARZNEIMITTEL AG, priority 1997, dated 1999).
≈ marks a conversion by molar mass, not a printed value. Like-named read-outs stand apart in the source and are kept apart here.

Assays:
[1] = cited from earlier work
[2] = Solubility trials: saturation concentration of the oxazaphosphorine in water / aqueous urea solution; conditions: for pH-Wert: saturated Ifosfamid solution
[3] = water, Sättigungskonzentration in Wasser, in Wasser

O=P1(NCCCl)OCCCN1CCCl (stereo not shown) [Ifosfamid]
Wirkstoffverlust ([1]; 5%ige und 10%ige (G/V) wäßrige Ifosfamidlösungen, 2 bis 8°C, nach 17 Wochen, 171360 min): ≤ 10% | Wirkstoffverlust ([1]; 5%ige und 10%ige (G/V) wäßrige Ifosfamidlösungen, Raumtemperatur, nach 6 Wochen, 60480 min): ≤ 10% | solubility ([2]; aqueous urea solution, Ifosfamid-Endkonzentration, Harnstoff-Startkonzentration 1,0 % (G/V), Harnstoff-Endkonzentration 0,8 % (G/G)): 128 mg/mL (≈ 490 mM) | solubility ([2]; aqueous urea solution, Ifosfamid-Endkonzentration, Harnstoff-Startkonzentration 2,0 % (G/V), Harnstoff-Endkonzentration 1,6 % (G/G)): 132 mg/mL (≈ 506 mM) | solubility ([2]; aqueous urea solution, Ifosfamid-Endkonzentration, Harnstoff-Startkonzentration 3,0 % (G/V), Harnstoff-Endkonzentration 2,4 % (G/G)): 139 mg/mL (≈ 532 mM) | solubility ([2]; aqueous urea solution, Ifosfamid-Endkonzentration, Harnstoff-Startkonzentration 4,0 % (G/V), Harnstoff-Endkonzentration 3,2 % (G/G)): 147 mg/mL (≈ 563 mM) | solubility ([2]; aqueous urea solution, Ifosfamid-Endkonzentration, Harnstoff-Startkonzentration 5,0 % (G/V), Harnstoff-Endkonzentration 3,8 % (G/G)): 153 mg/mL (≈ 586 mM) | solubility ([2]; aqueous urea solution, Ifosfamid-Endkonzentration, Harnstoff-Startkonzentration 6,0 % (G/V), Harnstoff-Endkonzentration 4,4 % (G/G)): 159 mg/mL (≈ 609 mM) | solubility ([2]; aqueous urea solution, Ifosfamid-Endkonzentration, Harnstoff-Startkonzentration 7,0 % (G/V), Harnstoff-Endkonzentration 4,6 % (G/G)): 169 mg/mL (≈ 647 mM) | solubility ([2]; aqueous urea solution, Ifosfamid-Endkonzentration, Harnstoff-Startkonzentration 8,0 % (G/V), Harnstoff-Endkonzentration 5,0 % (G/G)): 172 mg/mL (≈ 659 mM) | solubility ([2]; aqueous urea solution, Ifosfamid-Endkonzentration, Harnstoff-Startkonzentration 9,0 % (G/V), Harnstoff-Endkonzentration 5,1 % (G/G)): 173 mg/mL (≈ 663 mM) | solubility ([2]; aqueous urea solution, Ifosfamid-Endkonzentration, Harnstoff-Startkonzentration 10,0 % (G/V), Harnstoff-Endkonzentration 6,6 % (G/G)): 370 mg/mL (≈ 1420 mM) | solubility ([2]; aqueous urea solution, Ifosfamid-Endkonzentration, Harnstoff-Startkonzentration 12,5 % (G/V), Harnstoff-Endkonzentration 7,0 % (G/G)): 412 mg/mL (≈ 1580 mM) | solubility ([2]; aqueous urea solution, Ifosfamid-Endkonzentration, Harnstoff-Startkonzentration 15 % (G/V), Harnstoff-Endkonzentration 12,2 % (G/G)): 462 mg/mL (≈ 1770 mM) | solubility ([2]; aqueous urea solution, Ifosfamid-Endkonzentration, Harnstoff-Startkonzentration 20 % (G/V), Harnstoff-Endkonzentration 15,8 % (G/G)): 483 mg/mL (≈ 1850 mM) | solubility ([2]; aqueous urea solution, Ifosfamid-Endkonzentration, Harnstoff-Startkonzentration 30 % (G/V), Harnstoff-Endkonzentration 24,2 % (G/G)): 521 mg/mL (≈ 2000 mM) | solubility ([2]; aqueous urea solution, Ifosfamid-Endkonzentration, Harnstoff-Startkonzentration 40 % (G/V), Harnstoff-Endkonzentration 34,3 % (G/G)): 462 mg/mL (≈ 1770 mM) | solubility ([2]; aqueous urea solution, Ifosfamid-Endkonzentration, Harnstoff-Startkonzentration 50 % (G/V), Harnstoff-Endkonzentration 42,1 % (G/G)): 443 mg/mL (≈ 1700 mM) | solubility ([2]; aqueous urea solution, Ifosfamid-Sättigungskonzentration, bei geeigneter Harnstoffkonzentration): ~500 mg/mL (≈ 1920 mM) | pH-Wert ([2]; Harnstoff-Startkonzentration 0 % (G/V)): 5,2 | pH-Wert ([2]; Harnstoff-Startkonzentration 1,0 % (G/V)): 5,0 | pH-Wert ([2]; Harnstoff-Startkonzentration 2,0 % (G/V)): 5,0 | pH-Wert ([2]; Harnstoff-Startkonzentration 3,0 % (G/V)): 5,0 | pH-Wert ([2]; Harnstoff-Startkonzentration 4,0 % (G/V)): 5,1 | pH-Wert ([2]; Harnstoff-Startkonzentration 5,0 % (G/V)): 5,1 | pH-Wert ([2]; Harnstoff-Startkonzentration 6,0 % (G/V)): 5,1 | pH-Wert ([2]; Harnstoff-Startkonzentration 7,0 % (G/V)): 5,1 | pH-Wert ([2]; Harnstoff-Startkonzentration 8,0 % (G/V)): 5,1 | pH-Wert ([2]; Harnstoff-Startkonzentration 9,0 % (G/V)): 5,2 | pH-Wert ([2]; Harnstoff-Startkonzentration 10,0 % (G/V)): 5,1 | pH-Wert ([2]; Harnstoff-Startkonzentration 12,5 % (G/V)): 5,0 | pH-Wert ([2]; Harnstoff-Startkonzentration 15 % (G/V)): 5,0 | pH-Wert ([2]; Harnstoff-Startkonzentration 20 % (G/V)): 5,0 | pH-Wert ([2]; Harnstoff-Startkonzentration 30 % (G/V)): 5,0 | pH-Wert ([2]; Harnstoff-Startkonzentration 40 % (G/V)): 5,0 | pH-Wert ([2]; Harnstoff-Startkonzentration 50 % (G/V)): 5,0 | solubility ([2]; water, Ifosfamid-Endkonzentration, Harnstoff-Startkonzentration 0 % (G/V), Harnstoff-Endkonzentration 0 % (G/G)): 118 mg/mL (≈ 452 mM) | solubility [2, 3]: ~120 mg/mL (≈ 460 mM)

O=P1(N(CCCl)CCCl)NCCCO1 (stereo not shown) [Cyclophosphamid]
Wirkstoffverlust ([1]; 2%ige (G/V) wäßrige Cyclophosphamidlösungen, 2 bis 8°C, nach 17 Wochen, 171360 min): ≤ 10% | Wirkstoffverlust ([1]; 2%ige (G/V) wäßrige Cyclophosphamidlösungen, Raumtemperatur, nach 7 Tagen): ≤ 10% | solubility ([2]; aqueous urea solution, Cyclophosphamid-Endkonzentration, Harnstoff-Startkonzentration 10 % (G/V), Harnstoff-Endkonzentration 9,1 % (G/G)): 87 mg/mL (≈ 333 mM) | solubility ([2]; aqueous urea solution, Cyclophosphamid-Endkonzentration, Harnstoff-Startkonzentration 20 % (G/V), Harnstoff-Endkonzentration 17,0 % (G/G)): 112 mg/mL (≈ 429 mM) | solubility ([2]; aqueous urea solution, Cyclophosphamid-Endkonzentration, Harnstoff-Startkonzentration 30 % (G/V), Harnstoff-Endkonzentration 24,2 % (G/G)): 136 mg/mL (≈ 521 mM) | solubility ([2]; aqueous urea solution, Cyclophosphamid-Endkonzentration, Harnstoff-Startkonzentration 40 % (G/V), Harnstoff-Endkonzentration 30,3 % (G/G)): 172 mg/mL (≈ 659 mM) | solubility ([2]; aqueous urea solution, Cyclophosphamid-Endkonzentration, Harnstoff-Startkonzentration 45 % (G/V), Harnstoff-Endkonzentration 37,3 % (G/G)): 170 mg/mL (≈ 651 mM) | solubility ([2]; aqueous urea solution, Cyclophosphamid-Endkonzentration, Harnstoff-Startkonzentration 50 % (G/V), Harnstoff-Endkonzentration 45,2 % (G/G)): 152 mg/mL (≈ 582 mM) | solubility ([2]; aqueous urea solution, Cyclophosphamid-Sättigungskonzentration, with Harnstoff, up to Harnstoffstartkonzentration 50% (G/V)): ≤ 170 mg/mL | solubility ([2]; water, Cyclophosphamid-Endkonzentration, Harnstoff-Startkonzentration 0 % (G/V), Harnstoff-Endkonzentration 0 % (G/G)): 61 mg/mL (≈ 234 mM) | solubility [2, 3]: ~60 mg/mL (≈ 230 mM)
